Positions of bridges follow the written chain, without caps; N, C: chain ends. No end group written: not given here.
Legend:
RF = experiment: Inhibition of RF binding to immune complexes using additional peptides (Example 5); details: for OD 405 nm: PAP pre-incubated with peptide one hour, RF coated plates, positive control 1.176
Method: The ability of additional peptides to inhibit the binding of RF to immune complexes was tested. Immune complexes (PAP) were formed by mixing 2 μl of rabbit anti-peroxidase with 50 μl of peroxidase in 1 ml distilled water. PAP (100 μl) were pre-incubated with 100 μl of peptide for one hour. Plates coated with RF were blocked with 5× BSA for 24 hours. The PAP/peptide mixtures (100 μl) were incubated with the RF coated plates for 30 minutes. RF (100 μl of a 200 I.U. standard supplied by Research Diagnostics) was used as a negative control. After washing and incubation with ABTS substrate (Quidel Corp., San Diego, Calif.) for 15 minutes, plates were read at 405 nm.

human monomeric IgG = experiment: Inhibition of RF binding to monomeric IgG by additional peptides (Example 7); details: peptides pre-incubated 1 hour with monomeric IgG, then 200 I.U. RF; positive control 1.312
Method: The ability of additional peptides to inhibit RF binding to monomeric IgG was tested. A standard rheumatoid factor commercial test was used (Research Diagnostics, New Jersey) with the following modifications: 100 μl of test peptides were pre-incubated for 1 hour with human monomeric IgG (Research Diagnostics, New Jersey). Plates were then washed and incubated with 200 I.U. of the RF positive control supplied with the test kit. The rest of the test was performed according to the manufacturer's instructions.

FcγIIa = experiment: Inhibition of FcR binding to PAP by additional peptides, FcγIIa coated plates (Example 8); details: for OD 405 nm: OD read at 405 nm, positive control 1.599
Method: (§1) Falcon microtiter plates were coated with 1:10 dilutions of highly purified FcγIIa, FcγIIb and FcγIII, sealed, and incubated for […] at 4° C. […] PAP immune complexes were formed as described in Example 5. PAP (100 μl) were pre-incubated with 100 μl of peptide for one hour. PAP/peptide mixtures were added to the FcR coated plates and incubated for one hour. After washing, plates were incubated with ABTS substrate for 15 minutes and read at 405 nm.

C1q = experiment: Inhibition of C1q binding to immune complexes using additional peptides (Example 6); parameters: species or system human; details: for OD 405 nm: PAP pre-incubated with peptide or human C1q one hour, C1q coated plates, positive control 2.355
Method: The C1q/PAP and peptide/PAP mixtures (100 μl) were incubated with C1q coated plates for 30 minutes. After washing, plates were incubated with ATBS (Quidel Corp.) for 15 minutes and read at 405 nm.

FcγIIb = experiment: Inhibition of FcR binding to PAP by additional peptides, FcγIIb coated plates (Example 8); details: OD read at 405 nm; positive control 1.394
Method: as §1

FcγIII = experiment: Inhibition of FcR binding to PAP by additional peptides, FcγIII coated plates (Example 8); details: OD read at 405 nm; positive control 1.588
Method: as §1

histone = experiment: Inhibition of histone binding: PAP immune complexes on histone-coated plates (Example 3)
Method: Inhibition of histone binding: The binding of immune complexes to the kidneys in lupus nephritis appears to involve (a) the binding of histones to the GBM, and then (b) the binding of immune complexes (through the IgG Fc CH2-CH3 cleft) to the bound histones. Experiments similar to those described above were used to inhibit binding of purified histone to IgG Fc binding. Histone (Sigma) was diluted 1:10 in coating buffer (Alpha Diagnostic International) and incubated on Falcon microtiter plates for 24 hours. Plates were blocked with 5× BSA blocking solution (Alpha Diagnostic International) for 24 hours. Freshly prepared 1:10 rabbit PAP (Sigma) was pre-incubated with either peptides or histone for one hour, and 100 μl of the mixture was added to the histone-coated plates for one hour. Plates were incubated with ABTS substrate (Quidel Corp.) for 45 minutes, and OD 405 was read.

MBP = test system: MBP
Method: Inhibition of MBP binding: MBP (Sigma) was diluted 1:10 with coating buffer (Alpha Diagnostic International) and incubated for 24 hours on Falcon microtiter plates. Plates were washed and then blocked with 5× BSA blocking buffer (Alpha Diagnostic International) for 24 hours. Rabbit 1:10 PAP immune complexes were pre-incubated with equal amounts of peptide or MBP for 30 minutes. One hundred μl of PAP immune complexes/peptide or PAP/MBP was then added to the MBP-coated plates and incubated for one hour. The plates were washed and incubated with TMB substrate (Alpha Diagnostic International) for 30 minutes. After adding stop solution (Alpha Diagnostic International), the plates were read at 450 nm.
Further experiments were conducted to determine the effect of SEQ ID NO:47 (also referred to as NB-406) on binding of MBP to IgG PAP immune complexes.

| Sequence | OD 405 nm (RF) | OD 405 nm (human monomeric IgG) | OD 405 nm (FcγIIa) | OD 405 nm (C1q) | OD 405 nm (FcγIIb) | OD at 405 nm (FcγIII) | OD 405 nm (histone; Table 5 experiment, IgG PAP immune complexes, positive control 2.110) | inhibition of histone binding to immune complexes, in words (histone; text on Tables 4 and 5) | inhibition of RF binding to immune complexes, in words (RF; Table 10) | OD 405 nm (MBP; Table 7 experiment, IgG PAP immune complexes, positive control 2.343) | inhibition of MBP binding to immune complexes, in words (MBP; text on Tables 6 and 7) | inhibition of FcR binding to PAP, in words (FcγIIa; Table 13, statement for FcγIIa, FcγIIb and FcγIII together) | inhibition of C1q binding, in words (C1q; Table 11) |
| --- | --- | --- | --- | --- | --- | --- | --- | --- | --- | --- | --- | --- | --- |
| APPCAWHLGELVWCT (disulfide 4-14 (inferred)) | 0.250 | 1.166 | 0.658 | 1.148 | 0.562 | 0.530 | – | – | – | – | – | – | – |
| APPCAFHLGELVWCT (disulfide 4-14 (inferred)) | 0.226 | 1.159 | 0.605 | 0.983 | 0.380 | 0.880 | – | – | – | – | – | – | – |
| DCAFHLGELVWCT (disulfide 2-12 (inferred)) | 0.267 | 0.962 | 0.660 | 0.859 | 0.510 | 0.810 | – | – | – | – | – | – | – |
| APPDCAWHLGELVWCT (Synthetically generated polypeptide) | 0.205 | 1.065 | 0.509 | 0.389 | 0.496 | 0.670 | 0.227 | significantly inhibit | best inhibition | 0.500 | able to inhibit | greatest inhibition | greatest inhibition |
